Data on 3 compounds can be found in patent publication US9242985B2, “Structural mimetics of proline-rich peptides and use thereof” (priority 2011, dated 2016).

No end group written: not given here.

Type in all cases: binding
One experiment concerns the target VASP-EVH1 domain (Homo sapiens, UniProt P50552).
Another experiment concerns the target VASP-EVH1 (Homo sapiens, UniProt P50552). The experiment can be described thus: Further experiments: bonding affinity of ligand peptides to the domain (method not given). The text has this: In addition, the observed increase in affinity with the compounds according to the invention allows for the first time ever to forego using natural amino acids completely, while still preserving the ability to bind to the EVH1 domains: […]

Experiment [1] concerns the target T1, EVH1 domain (VASP-EVH1) (Homo sapiens, UniProt P50552). Kind of experiment: Bonding affinity to EVH1 domain by fluorescence titration. The text has this: (§1) With the aid of the synthetic compound 85, by way of an example, the ligand peptides were synthetized with partially or completely substituted proline sequences and then examined for their interaction with the EVH1 domain (p=component 85). It was found therein that, due to the insertion of the mimetic 85, it was possible to increase the bonding affinity of the ligand peptides relative to the domain.
(§2) This is summarized in Table 1 below, which lists the bonding affinities of the ligand peptides as well as of the underlying native peptide ligands.
(§3) The bonding affinities were determined by means of fluorescence titration and isothermal calorimetry (p=component 85, wherein x denotes the already known PPII-mimetic amino acid according to structure 86 (presently as Fmoc-protected amino acid); and “2-Cl—F” stands for 2-Cl-phenylalanine).

In experiment [2] the target is T1, EVH1 domain (VASP-EVH1). The experiment can be described thus: Bonding affinity to EVH1 domain by isothermal calorimetry (ITC).
Source text: as §1, §2, §3
A general note: In ITC the heat of successive injections is recorded.

T1 sequence (P50552 2-113): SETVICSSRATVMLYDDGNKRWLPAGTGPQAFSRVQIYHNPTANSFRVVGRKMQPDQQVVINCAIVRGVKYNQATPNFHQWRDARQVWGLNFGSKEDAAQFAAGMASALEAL
VASP-EVH1, sequence (P50552 2-113 limits assumed): as the sequence (P50552 2-113) above
VASP-EVH1 domain, sequence (P50552 2-113): as above
Source text for VASP-EVH1 domain: In addition, based on a number of different test ligand peptides, it was possible to gain an overview of the bonding affinities.

In the case of FPPPPT [FPPPPT], the “bonding affinity KD” value at VASP-EVH1 domain was “no measurable affinity”. For orientation: Kd means the free concentration of one partner at which half of the binding sites on the other are occupied at equilibrium, for simple one-to-one binding. A higher Kd goes with a looser complex. With Ac-FPPPP [Ac-(SEQ ID NO: 4)-OH], the Kd at VASP-EVH1 was over 500 µM. Regarding `CC(=O)N[C@@H](CO)C(=O)N[C@@H](Cc1ccccc1)C(=O)N[C@@H](CCC(=O)O)C(=O)N[C@@H](Cc1ccccc1Cl)C(=O)N1CCC[C@H]1C(=O)N1CCC[C@H]1C(=O)N1CCC[C@H]1C(=O)N1CCC[C@H]1C(=O)N[C@H](C(=O)N[C@@H](CCC(=O)O)C(=O)N[C@@H](CC(=O)O)C(=O)N[C@@H](CCC(=O)O)C(=O)N[C@@H](CC(C)C)C(N)=O)[C@@H](C)O`, the Kd at EVH1 domain (VASP-EVH1) [1] worked out at 5 µM; at EVH1 domain (VASP-EVH1) [2], 2000 nM.
